Experimental data as given in patent publication US11267826B2, “Penicillin-binding protein inhibitors” (priority 2017, dated 2022).

Experiments:
[1] = molecular target: T1, E. coli PBP3 (Escherichia coli, UniProt P0AD68); assay: Bocillin FL competition binding assay, PBP3; parameters: species or system Escherichia coli K12; settings: 15 min pre-incubation
T1 construct: 100 μg's of total membrane protein extracts containing PBPs; endogenous in cells; host or cells: Escherichia coli K12, membrane protein fraction
T1 sequence (P0AD68 1-577): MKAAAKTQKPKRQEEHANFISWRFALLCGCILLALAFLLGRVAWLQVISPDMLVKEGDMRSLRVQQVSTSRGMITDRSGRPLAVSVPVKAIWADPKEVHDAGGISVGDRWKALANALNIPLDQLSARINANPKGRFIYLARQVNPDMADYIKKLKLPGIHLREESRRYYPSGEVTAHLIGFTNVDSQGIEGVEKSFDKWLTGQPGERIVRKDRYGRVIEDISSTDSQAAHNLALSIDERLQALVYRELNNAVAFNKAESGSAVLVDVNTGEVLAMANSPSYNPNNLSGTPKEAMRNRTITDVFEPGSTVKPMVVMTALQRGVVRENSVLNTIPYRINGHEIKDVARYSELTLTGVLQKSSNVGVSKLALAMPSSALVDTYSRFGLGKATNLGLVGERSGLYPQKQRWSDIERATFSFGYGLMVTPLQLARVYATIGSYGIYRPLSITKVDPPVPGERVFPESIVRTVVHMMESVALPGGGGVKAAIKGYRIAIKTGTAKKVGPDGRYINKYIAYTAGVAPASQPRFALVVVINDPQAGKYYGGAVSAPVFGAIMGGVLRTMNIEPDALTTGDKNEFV
Description: (§1) To determine the ability of test compounds to bind Penicillin Binding Proteins (PBPs), a competition binding assay using Bocillin FL (fluorescent derivative of penicillin V) was adapted from the classical method used to assess PBP potency of beta-lactams.
(§2) Penicillin binding proteins were isolated from Escherichia coli K12 by growth of Escherichia coli K12 from a single colony in 4 L of Luria-Bertani (LB) broth at 35° C. and 250 rpm to an OD600 nm of 0.5. The cells were harvested by centrifugation at 7,000×g for 10 min. at 4° C. Cells were resuspended and washed in 50 mM potassium phosphate pH 7.5. The cells were re-suspended in sonication buffer [50 mM Tris-HCl pH 7.5, 1 mM MgCl2, 1 mM beta-mercaptoethanol, and 5 μg/mL DNAse I] and sonicated by 4 passes of 30 seconds at 45 W on ice. The sample was clarified by centrifugation at 3,000×g to remove cell debris and unbroken cells and supernatant containing the membrane proteins was retained. The membrane proteins including the PBPs were further purified from soluble constituents by an ultracentrifugation step at 100,000×g for 30 min. at 4° C. The membrane proteins are washed twice with 10 mM sodium phosphate pH 7, resuspended in a volume of 5 mL, quantitated by BCA assay, adjusted to […] and frozen at −80° C. until use.
(§3) The adapted Bocillin FL competition binding method described herein incorporates a 15 min. pre-incubation of test compound with isolated PBPs to attempt to balance the difference in mechanism of inhibition between beta-lactams (largely irreversible covalent bond to active site Serine) and the boron-containing PBP inhibitor test compounds (reversible covalent bond to active site Serine). Briefly, 50 μL reactions consisted of 100 μg's of total membrane protein extracts containing PBPs incubated with a dilution series of test compound ranging from 0.005 μg/mL to 2,480 μg/mL in 10 mM sodium phosphate pH7 containing 350 mM NaCl. Thirty minute reactions at 35° C. were initiated by addition of […] Bocillin FL, quenched by addition of SDS-PAGE loading buffer containing sodium dodecyl sulfate (SDS) and heated for 15 minutes at 95° C. to denature proteins in preparation for SDS-polyacrylamide gel electrophoresis. The Bocillin FL labeled PBPs are then separated by SDS-PAGE in Novex NuPage 10% Bis-Tris pre-cast gels (Invitrogen). The SDS-PAGE gel, post-electrophoresis, is then washed in water to remove excess SDS for 10 minutes at room temperature and placed on the scanning bed of a GE Healthcare/Amersham Biosciences Storm 860 fluorescence scanner. The excitation wavelength is in the blue spectrum at 450 nm and the emission at 520 nm is captured by the instrument. Effective PBP inhibitors are detected by a reduction in Bocillin FL labeling of the particular PBP over the dose range of test compound in a dose-responsive manner. High molecular weight PBP 1a/1b are not resolved by these gels, thus we report HMW PBP binding results in μg/mL for PBPs 1a/1b combined as well as for PBP2 and PBP3.
(§4) Representative results are shown in Table 2, where A represents a potency of >1000 μg/mL, B represents a potency between 64 and 1000 μg/mL inclusive, and C represents a potency of <64 μg/mL. NT=Not Tested.

[2] = system: E. coli K12 PBP1a/b; assay: Bocillin FL competition binding assay, PBP1a/1b combined; parameters: species or system Escherichia coli K12; settings: 15 min pre-incubation, PBP 1a/1b combined
Description: as §1, §2, §3, §4

[3] = system: S. aureus ATCC 29213; assay: Broth microdilution MIC assay, S. aureus; format: cell-based; settings: Staphylococcus aureus, ATCC29213; broth microdilution, 16-20 hours at 37° C.; read-out: S. aureus 29213 MIC
In short: (§5)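 Following CLSI procedures, compounds were serially diluted 2-fold and challenged with bacteria at 5×10^5 CFU/mL in Mueller-Hinton broth supplemented with divalent cations. After 16-20 hours at 37° C, the lowest concentration without visible growth was recorded as the MIC.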

[4] = molecular target: T2, E. coli PBP2 (Escherichia coli, UniProt P0AD65); assay: Bocillin FL competition binding assay, PBP2; parameters: species or system Escherichia coli K12; settings: 15 min pre-incubation
T2 construct: 100 μg's of total membrane protein extracts containing PBPs; endogenous in cells; host or cells: Escherichia coli K12, membrane protein fraction
T2 sequence (P0AD65 whole entry): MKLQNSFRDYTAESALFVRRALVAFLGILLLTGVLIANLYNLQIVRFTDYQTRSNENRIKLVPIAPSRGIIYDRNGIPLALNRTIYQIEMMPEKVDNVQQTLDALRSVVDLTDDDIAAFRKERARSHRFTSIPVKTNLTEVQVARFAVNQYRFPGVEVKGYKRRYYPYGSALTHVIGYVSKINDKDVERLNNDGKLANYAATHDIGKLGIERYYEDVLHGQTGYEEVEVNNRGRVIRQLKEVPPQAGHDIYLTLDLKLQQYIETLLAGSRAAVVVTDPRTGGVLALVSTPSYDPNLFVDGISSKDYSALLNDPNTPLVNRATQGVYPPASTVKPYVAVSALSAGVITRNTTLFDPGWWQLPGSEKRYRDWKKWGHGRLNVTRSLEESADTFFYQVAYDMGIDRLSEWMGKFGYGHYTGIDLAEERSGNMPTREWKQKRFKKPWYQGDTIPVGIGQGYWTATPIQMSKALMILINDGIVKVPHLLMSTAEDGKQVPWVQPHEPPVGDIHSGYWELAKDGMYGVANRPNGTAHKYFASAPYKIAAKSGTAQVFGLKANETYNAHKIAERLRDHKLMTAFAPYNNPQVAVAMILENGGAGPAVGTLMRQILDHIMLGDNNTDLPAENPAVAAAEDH
Description: as §1, §2, §3, §4

[5] = system: hyper-permeable E. coli 901C; assay: Broth microdilution MIC assay, hyper-permeable E. coli; format: cell-based; settings: Escherichia coli, read-out: E. coli 901C MIC
In short: as §5

SMILES	E. coli PBP3 Potency [1]	E. coli K12 PBP1a/b Potency [2]	MIC [3] [µg/mL]	E. coli PBP2 Potency [4]	MIC [5] [µg/mL]
Nc1nc(/C(=N/O)C(=O)N[C@H]2Cc3cc(Cl)cc(C(=O)O)c3OB2O)cs1 [Example 44, (R,Z)-3-(2-(2-aminothiazol-4-yl)-2-(hydroxyimino)acetamido)-6-chloro-2-hydroxy-3,4-dihydro-2H-benzo[e][1,2]oxaborinine-8-carboxylic Acid]	B (B represents a potency between 64 and 1000 μg/mL inclusive)	B (B represents a potency between 64 and 1000 μg/mL inclusive)	< 64	B (B represents a potency between 64 and 1000 μg/mL inclusive)	< 64
N#Cc1ccc(OCCO/N=C(\C(=O)N[C@H]2Cc3cccc(C(=O)O)c3OB2O)c2csc(N)n2)cc1 [Example 46, (R,Z)-3-(2-(2-aminothiazol-4-yl)-2-((2-(4-cyanophenoxy)ethoxy)imino)acetamido)-2-hydroxy-3,4-dihydro-2H-benzo[e][1,2]oxaborinine-8-carboxylic Acid]	B (B represents a potency between 64 and 1000 μg/mL inclusive)	C (C represents a potency of <64 μg/mL)	64 to 128	C (C represents a potency of <64 μg/mL)	< 64
Nc1nc(/C(=N/OCCOc2ccccc2)C(=O)N[C@H]2Cc3cccc(C(=O)O)c3OB2O)cs1 [Example 50, (R,Z)-3-(2-(2-aminothiazol-4-yl)-2-((2-phenoxyethoxy)imino)acetamido)-2-hydroxy-3,4-dihydro-2H-benzo[e][1,2]oxaborinine-8-carboxylic Acid]	B (B represents a potency between 64 and 1000 μg/mL inclusive)	B (B represents a potency between 64 and 1000 μg/mL inclusive)	64 to 128	B (B represents a potency between 64 and 1000 μg/mL inclusive)	< 64
N=C(N)c1ccc(OCCO/N=C(\C(=O)N[C@H]2Cc3cccc(C(=O)O)c3OB2O)c2csc(N)n2)cc1 [Example 55, (R,Z)-3-(2-(2-aminothiazol-4-yl)-2-((2-(4-carbamimidoylphenoxy)ethoxy)imino)acetamido)-2-hydroxy-3,4-dihydro-2H-benzo[e][1,2]oxaborinine-8-carboxylic Acid]	C (C represents a potency of <64 μg/mL)	C (C represents a potency of <64 μg/mL)	> 128	B (B represents a potency between 64 and 1000 μg/mL inclusive)	< 64
N#Cc1ccc(NC(=O)CO/N=C(\C(=O)N[C@H]2Cc3cccc(C(=O)O)c3OB2O)c2csc(N)n2)cc1 [Example 56, (R,Z)-3-(2-(2-aminothiazol-4-yl)-2-((2-((4-cyanophenyl)amino)-2-oxoethoxy)imino)acetamido)-2-hydroxy-3,4-dihydro-2H-benzo[e][1,2]oxaborinine-8-carboxylic Acid]	C (C represents a potency of <64 μg/mL)	B (B represents a potency between 64 and 1000 μg/mL inclusive)	64 to 128	C (C represents a potency of <64 μg/mL)	< 64
CNC(=O)CO/N=C(\C(=O)N[C@H]1Cc2cccc(C(=O)O)c2OB1O)c1csc(N)n1 [Example 57, (R,Z)-3-(2-(2-aminothiazol-4-yl)-2-((2-(methylamino)-2-oxoethoxy)imino)acetamido)-2-hydroxy-3,4-dihydro-2H-benzo[e][1,2]oxaborinine-8-carboxylic Acid]	C (C represents a potency of <64 μg/mL)	C (C represents a potency of <64 μg/mL)	> 128	B (B represents a potency between 64 and 1000 μg/mL inclusive)	< 64
